Paper PMC6332200, “Isolation and Identification of Cytotoxic Compounds from Aeschynomene fascicularis, a Mayan Medicinal Plant” (Molecules, 2015)
Several values for one entry are separate records, joined by “and”; a condition that tells them apart may be missing. Equal values may be shown once.

Columns and labels:
[1] = Cytotoxicity MTT assay, MDCK normal cell line; type: cell-based; details: dog, MDCK cells (normal cell line), read-out: Cytotoxic activity CC50
Method: (§1) Three types of cancer cell lines obtained from the American Type Culture Collection (ATCC) were cultured: two oral-laryngeal cancer cell lines, nasopharynx carcinoma (KB, ATCC-CCL-17) and laryngeal carcinoma (Hep-2, ATCC-CCL-23); two cervix-uterine cancer cell lines, cervix adenocarcinoma (HeLa, ATCC-CCL-2) and cervix squamous carcinoma (SiHa, ATCC-HTB-35); and two prostate cancer cell lines, prostate carcinoma (DU-145, ATCC-HTB-81) and prostate adenocarcinoma (PC-3, ATCC-CRL-1435); along with one normal cell line (MDCK, ATCC-CCL-34). The cells were cultured in sterile Costar T75 flasks containing DMEM (Gibco, Hong Kong, China), supplemented with fetal bovine serum (10%, v/v), 100 U/mL penicillin G, and […] streptomycin at 37 °C in an atmosphere of 5% CO2 (95% humidity). At 70%–80% confluence, cells were detached from the cultured flask by treatment with 0.05% trypsin-EDTA (Gibco), and a suspension of 5 × 10^4 cells/mL of viable cells was seeded in a 96-well microtiter plate (Costar, Washington, DC, USA) and incubated. Cytotoxicity was assessed by the MTT assay as previously described by Rahman. When cells reached 90% confluence in a microtiter plate, the DMEM was replaced with fresh medium and cells were incubated with compounds at various concentrations. […] The medium was aspirated, and the formazan product was solubilized with acidified isopropanol (0.4 N HCl). The amount of MTT-formazan is directly proportional to the number of living cells and was determined by measuring the optical density (OD) at 590 nm using a bioassay reader (Bio-Rad). All determinations were performed in triplicate. The cytotoxic and antiproliferative activities of tested compounds were calculated as the percentage of cells killed or the percentage of inhibition of cell proliferation, respectively, using the equation: growth inhibition (%) = (ODcontrol − ODsample/ODcontrol) × 100. […] In addition, the level of cytotoxicity on normal cells was evaluated by determining the selectivity index (SI) of each compound, which is calculated as the ratio of cytotoxicity or reduced cell growth on normal cells to cancer cells (SI = normal cells/cancer cells).

[2] = Cytotoxicity MTT assay, Hep-2 laryngeal carcinoma; type: cell-based, human; details: dog MDCK normal cells versus Hep-2 laryngeal carcinoma cells; CC50 MDCK normal cells / Hep-2; read-out: Selectivity index (SI) of cytotoxic activity
Method: as §1

[3] = test system: Hep-2; assay: Cytotoxicity MTT assay, Hep-2 laryngeal carcinoma; type: cell-based, human; details: Homo sapiens; Hep-2, MTT, 72 h; read-out: Cytotoxic activity CC50
Method: as §1

[4] = Cytotoxicity MTT assay, KB nasopharynx carcinoma; type: cell-based, human; details: human, MDCK normal cells versus KB nasopharynx carcinoma cells; CC50 MDCK normal cells / KB; read-out: Selectivity index (SI) of cytotoxic activity
Method: as §1

[5] = test system: KB; assay: Cytotoxicity MTT assay, KB nasopharynx carcinoma; type: cell-based, human; details: Homo sapiens; KB, MTT, 72 h; read-out: Cytotoxic activity CC50
Method: as §1

[6] = test system: HeLa; assay: Cytotoxicity MTT assay, HeLa cervix adenocarcinoma; type: cell-based, human; details: Homo sapiens; HeLa, MTT, 72 h; read-out: Cytotoxic activity CC50
Method: as §1

[7] = test system: SiHa; assay: Cytotoxicity MTT assay, SiHa cervix squamous carcinoma; type: cell-based, human; details: Homo sapiens; SiHa, MTT, 72 h; read-out: Cytotoxic activity CC50
Method: as §1

[8] = Cytotoxicity MTT assay, DU-145 prostate carcinoma; type: cell-based, human; details: human, MDCK normal cells versus DU-145 prostate carcinoma cells; CC50 MDCK normal cells / DU-145; read-out: Selectivity index (SI) of cytotoxic activity
Method: as §1

[9] = test system: DU-145; assay: Cytotoxicity MTT assay, DU-145 prostate carcinoma; type: cell-based, human; details: Homo sapiens; DU-145, MTT, 72 h; read-out: Cytotoxic activity CC50
Method: as §1

[10] = Cytotoxicity MTT assay, PC-3 prostate adenocarcinoma; type: cell-based, human; details: human, MDCK normal cells versus PC-3 prostate adenocarcinoma cells; CC50 MDCK normal cells / PC-3; read-out: Selectivity index (SI) of cytotoxic activity
Method: as §1

[11] = test system: PC-3; assay: as above; type: cell-based, human; details: Homo sapiens; PC-3, MTT, 72 h; read-out: Cytotoxic activity CC50
Method: as §1

[12] = test system: MDCK; assay: Antiproliferative sulforhodamine B assay, MDCK normal cell line; type: cell-based; details: Canis lupus familiaris, SRB, 48 h
Method: (§2) Three types of cancer cell lines obtained from the American Type Culture Collection (ATCC) were cultured: two oral-laryngeal cancer cell lines, nasopharynx carcinoma (KB, ATCC-CCL-17) and laryngeal carcinoma (Hep-2, ATCC-CCL-23); two cervix-uterine cancer cell lines, cervix adenocarcinoma (HeLa, ATCC-CCL-2) and cervix squamous carcinoma (SiHa, ATCC-HTB-35); and two prostate cancer cell lines, prostate carcinoma (DU-145, ATCC-HTB-81) and prostate adenocarcinoma (PC-3, ATCC-CRL-1435); along with one normal cell line (MDCK, ATCC-CCL-34). The cells were cultured in sterile Costar T75 flasks containing DMEM (Gibco, Hong Kong, China), supplemented with fetal bovine serum (10%, v/v), 100 U/mL penicillin G, and […] streptomycin at 37 °C in an atmosphere of 5% CO2 (95% humidity). At 70%–80% confluence, cells were detached from the cultured flask by treatment with 0.05% trypsin-EDTA (Gibco), and a suspension of 5 × 10^4 cells/mL of viable cells was seeded in a 96-well microtiter plate (Costar, Washington, DC, USA) and incubated.
(§3) The growth inhibition of cancer cells was evaluated by the sulforhodamine B method. When cells reached 70% confluence in a microtiter plate, the medium was replaced with DMEM 5% FBS and samples at various concentrations. After 48 h, the medium was discarded, and cells were fixed by adding 50 μL of 10% trichloroacetic acid (TCA, Sigma-Aldrich Chemical, St. Louis, MO, USA). The cells were then incubated at 4 °C for 30 min; TCA was drained off, and the plates were left to dry. Then, 50 μL of SRB stain (10 mg of 1% acetic acid, Sigma) were added to each well for 30 min. Finally, the plates were washed four times with 1% acetic acid (100 μL). The OD was measured at 540 nm using an ELISA reader (Bio-Rad). Docetaxel was used as a positive control, whereas cells incubated only with 0.05% of DMSO were used as a negative control. All determinations were performed in triplicate.
(§4) The cytotoxic and antiproliferative activities of tested compounds were calculated as the percentage of cells killed or the percentage of inhibition of cell proliferation, respectively, using the equation: growth inhibition (%) = (ODcontrol − ODsample/ODcontrol) × 100. […] In addition, the level of cytotoxicity on normal cells was evaluated by determining the selectivity index (SI) of each compound, which is calculated as the ratio of cytotoxicity or reduced cell growth on normal cells to cancer cells (SI = normal cells/cancer cells). It is generally considered that biological efficacy is not due to general toxicity when SI ≥ 10 [17].

[13] = test system: Hep-2; assay: Antiproliferative sulforhodamine B assay, Hep-2; type: cell-based, human; details: Homo sapiens; Hep-2, SRB, 48 h
Method: as §2, §3, §4

[14] = test system: KB; assay: Antiproliferative sulforhodamine B assay, KB; type: cell-based, human; details: Homo sapiens; KB, SRB, 48 h
Method: as §2, §3, §4

[15] = test system: HeLa; assay: Antiproliferative sulforhodamine B assay, HeLa; type: cell-based, human; details: Homo sapiens; HeLa, SRB, 48 h
Method: as §2, §3, §4

[16] = test system: SiHa; assay: Antiproliferative sulforhodamine B assay, SiHa; type: cell-based, human; details: Homo sapiens; SiHa, SRB, 48 h
Method: as §2, §3, §4

[17] = test system: DU-145; assay: Antiproliferative sulforhodamine B assay, DU-145; type: cell-based, human
Method: as §2, §3, §4

[18] = test system: PC-3; assay: Antiproliferative sulforhodamine B assay, PC-3; type: cell-based; details: Homo sapiens; PC-3, SRB, 48 h
Method: as §2, §3, §4

[19] = test system: Leishmania mexicana; set-up: method as in PMID 17291734; details: cited from earlier work
[20] = test system: Trypanosoma cruzi; set-up: method as in PMID 17291734; details: cited from earlier work

What does the source list for `CC(C)=CCc1c(O)ccc(C(=O)/C=C/c2ccccc2)c1O` [Compound 3, isocordoin]?
CC50 at 72 h [1]: 4.2 µg/mL and 14 µM; selectivity ratio at 72 h [2]: 0.7; CC50 [3]: 6.1 µg/mL and 20 µM; selectivity ratio at 72 h [4]: 0.5; CC50 [5]: 11 µg/mL and 27 µM; CC50 [6]: > 100 µg/mL; CC50 [7]: > 100 µg/mL; selectivity ratio at 72 h [8]: 0.6; CC50 [9]: 7 µg/mL and 23.1 µM; selectivity ratio at 72 h [10]: 0.23; CC50 [11]: 18.4 µg/mL and 60.3 µM; IC50 [12]: 18.4 µg/mL and 60.8 µM; IC50 [13]: > 100 µM; IC50 [14]: > 100 µM; IC50 [15]: > 100 µM; IC50 [16]: > 100 µM; IC50 ([17]; Homo sapiens, DU-145, SRB, 48 h): 13.3 µg/mL and 43.8 µM; Selectivity index (SI) of antiproliferative activity ([17]; IC50 MDCK normal cells / DU-145): 1.4; IC50 [18]: > 100 µM; Activity against the parasite Leishmania mexicana [19]: active; Activity against the parasite Trypanosoma cruzi [20]: active
